Drawing on patent US10669272B2, “Substituted naphthyridinone compounds useful as T cell activators” (BRISTOL-MYERS SQUIBB COMPANY, priority 2018, dated 2020), this text covers IC50 for 34 compounds.

The term IC50 denotes the point on the concentration scale where inhibition reaches its midpoint.

For one assay, the target named is T1, human DGKα (Homo sapiens, UniProt P23743).
T1 construct: TVMV protease cleavage site (C); Hexa-His (C); made in house; host or cells: Sf9 insect cells (baculovirus, Bac-to-Bac)
The assay can be described thus: DGKα LIPGLO assay (extruded liposome substrate), in vitro DGK inhibition. Format: biochemical. The note with it: read-out: DGKa LIPGLO IC50.

The next assay addresses T2, human DGKζ (Homo sapiens, UniProt Q13574).
T2 construct: TVMV protease cleavage site (C); Hexa-His (C); made in house; host or cells: Sf9 insect cells (baculovirus, Bac-to-Bac)
Description: DGKζ LIPGLO assay (extruded liposome substrate), in vitro DGK inhibition. It is filed as biochemical. The note with it: read-out: DGKz LIPGLO IC50.

Structures can show the parent of a compound that is named as a salt. Where two headings read alike, the source gives them in different places.

T2 sequence (Q13574 with tags, fused parts or gaps isoform Q13574-4): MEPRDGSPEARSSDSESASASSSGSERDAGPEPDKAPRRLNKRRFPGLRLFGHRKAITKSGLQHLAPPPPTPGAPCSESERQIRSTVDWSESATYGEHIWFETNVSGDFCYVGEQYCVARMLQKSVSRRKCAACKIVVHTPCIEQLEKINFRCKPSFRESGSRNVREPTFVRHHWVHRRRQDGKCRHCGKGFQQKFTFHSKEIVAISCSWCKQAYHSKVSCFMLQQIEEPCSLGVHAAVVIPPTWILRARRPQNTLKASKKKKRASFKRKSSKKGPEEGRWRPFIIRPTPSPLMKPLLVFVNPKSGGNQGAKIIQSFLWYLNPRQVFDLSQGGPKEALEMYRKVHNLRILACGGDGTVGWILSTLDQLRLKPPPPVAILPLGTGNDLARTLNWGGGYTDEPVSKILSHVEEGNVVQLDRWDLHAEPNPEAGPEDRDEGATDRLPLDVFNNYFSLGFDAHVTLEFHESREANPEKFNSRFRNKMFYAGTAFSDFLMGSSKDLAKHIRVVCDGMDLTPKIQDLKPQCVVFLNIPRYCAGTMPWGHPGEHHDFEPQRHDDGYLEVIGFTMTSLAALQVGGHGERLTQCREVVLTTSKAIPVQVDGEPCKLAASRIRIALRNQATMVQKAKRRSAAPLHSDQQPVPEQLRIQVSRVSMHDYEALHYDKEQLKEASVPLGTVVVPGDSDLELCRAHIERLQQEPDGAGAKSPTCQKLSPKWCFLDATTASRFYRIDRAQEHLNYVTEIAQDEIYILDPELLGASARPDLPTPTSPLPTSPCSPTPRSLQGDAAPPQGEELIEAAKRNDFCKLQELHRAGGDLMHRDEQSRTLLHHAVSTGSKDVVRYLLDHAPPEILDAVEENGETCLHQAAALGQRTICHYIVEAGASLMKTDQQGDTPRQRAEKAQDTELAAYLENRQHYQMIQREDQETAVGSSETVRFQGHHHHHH
T1 sequence (P23743 with tags, fused parts or gaps): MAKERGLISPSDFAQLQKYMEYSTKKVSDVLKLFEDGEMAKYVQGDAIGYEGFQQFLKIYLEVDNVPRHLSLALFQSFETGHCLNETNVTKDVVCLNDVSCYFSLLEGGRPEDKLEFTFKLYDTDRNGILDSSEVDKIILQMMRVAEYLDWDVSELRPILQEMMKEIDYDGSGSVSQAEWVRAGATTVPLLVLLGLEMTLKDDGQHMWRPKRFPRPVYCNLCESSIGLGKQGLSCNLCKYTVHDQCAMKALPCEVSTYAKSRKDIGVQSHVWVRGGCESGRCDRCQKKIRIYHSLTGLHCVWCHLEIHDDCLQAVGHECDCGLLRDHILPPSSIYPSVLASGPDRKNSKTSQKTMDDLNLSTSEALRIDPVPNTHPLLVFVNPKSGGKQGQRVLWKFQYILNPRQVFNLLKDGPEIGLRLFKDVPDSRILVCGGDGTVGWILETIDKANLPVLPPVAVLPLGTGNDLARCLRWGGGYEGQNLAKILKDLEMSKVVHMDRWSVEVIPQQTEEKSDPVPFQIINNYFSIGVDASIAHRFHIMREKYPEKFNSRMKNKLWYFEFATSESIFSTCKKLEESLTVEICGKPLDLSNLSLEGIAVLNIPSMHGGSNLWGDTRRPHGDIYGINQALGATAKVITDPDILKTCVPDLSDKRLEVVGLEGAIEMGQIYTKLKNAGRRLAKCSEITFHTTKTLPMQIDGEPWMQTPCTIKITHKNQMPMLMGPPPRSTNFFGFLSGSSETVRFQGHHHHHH

Turning to `C[C@@H]1CN(c2c(C#N)c(=O)n(C)c3ccc(C#N)nc23)CCN1C(c1ccc(F)cc1)c1cncnc1` (stereo partly drawn) [Example 317, 8-((3R)-4-((4-fluorophenyl)(pyrimidin-5-yl)methyl)-3-methylpiperazin-1-yl)-5-methyl-6-oxo-5,6-dihydro-1,5-naphthyridine-2,7-dicarbonitrile], the results for the IC50 on human DGKα (liposome (LIPGLO) assay) and on human DGKζ (liposome (LIPGLO) assay) were 3.8 µM and 13 µM, respectively.
`C[C@@H]1CN(c2c(C#N)c(=O)n(C)c3ccc(C#N)nc23)[C@@H](C)CN1C(c1ccc(F)cc1)c1cscn1` (single isomer, unassigned) [Example 856]: the figures for the IC50 at human DGKα (DGKα liposome (LIPGLO) assay) and on human DGKζ (DGKζ liposome (LIPGLO) assay) were 0.33 µM and 5.6 µM, respectively.
The matching figures for `CC(c1ccc(C(F)(F)F)cc1)N1C[C@H](C)N(c2c(C#N)c(=O)n(C)c3ccc(C#N)nc23)C[C@H]1C` (some centres unmarked) [Example 788]: 4.8 µM and above 250 µM.
For the compound `CCOc1cccc(CN2C[C@H](C)N(c3cc(=O)n(C)c4ccc(C#N)nc34)C[C@H]2C)c1` [Example 599], the IC50 at human DGKα (liposome (LIPGLO) assay) is 3.1 µM; on human DGKζ (liposome (LIPGLO) assay) it was 1.9 µM.
With `COC(CN1C[C@H](C)N(c2cc(=O)n(C)c3ccc(C#N)nc23)C[C@H]1C)c1ccc(F)cc1` (stereo partly drawn) [Example 561, 8-((2S,5R)-4-(2-(4-fluorophenyl)-2-methoxyethyl)-2,5-dimethylpiperazin-1-yl)-5-methyl-6-oxo-5,6-dihydro-1,5-naphthyridine-2-carbonitrile], the IC50 on human DGKα (liposome (LIPGLO) assay) is 7.1 µM; at human DGKζ (liposome (LIPGLO) assay), 10 µM.
For the compound `CC(c1cccc(C(F)(F)F)c1)N1CCN(c2c(C#N)c(=O)n(C)c3ccc(C#N)nc23)C[C@H]1C` (single isomer, unassigned) [Example 971], the results for the IC50 at human DGKα (DGKα liposome (LIPGLO) assay) and at human DGKζ (DGKζ liposome (LIPGLO) assay) were 1.8 µM and 4.9 µM, respectively.
As for `CC(c1cc(F)c(F)c(F)c1)N1C[C@H](C)N(c2cc(=O)n(C)c3ccc(C#N)nc23)C[C@H]1C` (single isomer, unassigned) [Example 1241], the IC50 on human DGKα (liposome (LIPGLO) assay) is 3.8 µM; on human DGKζ (liposome (LIPGLO) assay) it was 0.6 µM.
Taken in the same sequence, the figures for `Cc1nccc(C(c2ccc(F)cc2)N2CCN(c3c(C#N)c(=O)n(C)c4ccc(C#N)nc34)C[C@H]2C)n1` (stereo partly drawn) [Example 315, 8-((3R)-4-((4-fluorophenyl)(2-methylpyrimidin-4-yl)methyl)-3-methylpiperazin-1-yl)-5-methyl-6-oxo-5,6-dihydro-1,5-naphthyridine-2,7-dicarbonitrile] were 4.1 µM and 1.8 µM.
As to `CC(c1ccccn1)N1CCN(c2c(C#N)c(=O)n(C)c3ccc(C#N)nc23)C[C@H]1C` (single isomer, unassigned) [Example 965], the IC50 is 0.96 µM on human DGKα (DGKα liposome (LIPGLO) assay) and 60 µM on human DGKζ (DGKζ liposome (LIPGLO) assay).
On to `C[C@@H]1CN(c2cc(=O)n(C)c3ccc(C#N)nc23)[C@@H](C)CN1C(CO)c1ccc(C(F)(F)F)cn1` (stereo partly drawn) [Example 1279, 8-((2S,5R)-4-(2-hydroxy-1-(5-(trifluoromethyl)pyridin-2-yl)ethyl)-2,5-dimethylpiperazin-1-yl)-5-methyl-6-oxo-5,6-dihydro-1,5-naphthyridine-2-carbonitrile], for which the IC50 on human DGKα (liposome (LIPGLO) assay) and on human DGKζ (liposome (LIPGLO) assay) was 1.4 µM in each case.
Turning to `CC(C)C(C)(F)C1CN(c2cc(=O)n(C)c3ccc(C#N)nc23)CCN1C(c1ccc(F)cc1)c1ccc(F)cc1` (single isomer, unassigned) [Example 91, 8-(4-(bis(4-fluorophenyl)methyl)-3-(2-fluoro-3-methylbutan-2-yl)piperazin-1-yl)-5-methyl-6-oxo-5,6-dihydro-1,5-naphthyridine-2-carbonitrile, TFA], the IC50 on human DGKα (liposome (LIPGLO) assay) and at human DGKζ (liposome (LIPGLO) assay) was 240 µM throughout.
As to `C[C@@H]1CN(c2cc(=O)n(C)c3ccc(C#N)nc23)[C@@H](C)CN1C(c1ccc(F)cc1)c1ccccc1N1CCOCC1` (single isomer, unassigned) [Example 664], the IC50 at human DGKα (liposome (LIPGLO) assay) is above 250 µM; at human DGKζ (liposome (LIPGLO) assay), 4.5 µM.
In the case of `Cc1cccc(CN2CCN(c3c(C#N)c(=O)n(C)c4ccc(C#N)nc34)C[C@H]2C)c1` [Example 1012], the IC50 worked out at 0.35 µM on human DGKα (DGKα liposome (LIPGLO) assay) and 1.4 µM on human DGKζ (DGKζ liposome (LIPGLO) assay).
Turning to `C[C@@H]1CN(c2cc(=O)n(C)c3ccc(C#N)nc23)[C@@H](C)CN1C(c1ccc(F)cc1)c1noc(C(C)(C)C)n1` (single isomer, unassigned) [Example 764], the IC50 worked out at 0.051 µM at human DGKα (DGKα liposome (LIPGLO) assay) and 0.53 µM at human DGKζ (DGKζ liposome (LIPGLO) assay).
As for `C[C@@H]1CN(c2cc(=O)n(C)c3ccc(C#N)nc23)[C@@H](C)CN1C(c1ccc(F)cc1)c1ccccc1N1CCOCC1` (single isomer, unassigned) [Example 665], the IC50 at human DGKα (liposome (LIPGLO) assay) and on human DGKζ (liposome (LIPGLO) assay) was above 250 µM in each case.
`Cn1c(=O)cc(N2CC(C3CC3)N(C(c3ccc(F)cc3)c3ccc(F)cc3)CC2C2CC2)c2nc(C#N)ccc21` (single isomer, unassigned) [Example 152, 8-(4-(bis(4-fluorophenyl)methyl)-2,5-dicyclopropylpiperazin-1-yl)-5-methyl-6-oxo-5,6-dihydro-1,5-naphthyridine-2-carbonitrile]: the IC50 stood at 7.7 µM on human DGKα (liposome (LIPGLO) assay) and 240 µM on human DGKζ (liposome (LIPGLO) assay).
Take `C[C@@H]1CN(c2c(C#N)c(=O)n(C)c3ccc(C#N)nc23)CCN1C(c1ccc(F)cc1)c1cnccn1` (some centres unmarked) [Example 943]: the IC50 came to 1.1 µM at human DGKα (DGKα liposome (LIPGLO) assay) and 6.7 µM on human DGKζ (DGKζ liposome (LIPGLO) assay).
Consider `C[C@@H]1CN(c2c(C#N)c(=O)n(C)c3ccc(C#N)nc23)CCN1Cc1cccc(OC(F)(F)F)c1` [Example 1008], for which the IC50 was 1.7 µM on human DGKα (DGKα liposome (LIPGLO) assay) and 7.1 µM at human DGKζ (DGKζ liposome (LIPGLO) assay).
For `C[C@@H]1CN(c2cc(=O)n(C)c3ccc(C#N)nc23)[C@@H](C)CN1C(c1ccc(F)cc1)c1noc(C(C)(C)C)n1` (single isomer, unassigned) [Example 765], the IC50 at human DGKα (DGKα liposome (LIPGLO) assay) came out at 0.62 µM; at human DGKζ (DGKζ liposome (LIPGLO) assay) it was 0.13 µM.
In the case of `Cn1c(=O)cc(N2CCN(C(c3ccc(F)cc3)c3ccc(F)cc3)C(COC(F)F)C2)c2nc(C#N)ccc21` (single isomer, unassigned) [Example 1186], the values for the IC50 on human DGKα (liposome (LIPGLO) assay) and on human DGKζ (liposome (LIPGLO) assay) were above 250 µM and 30 µM, respectively.
The matching figures for `C[C@@H]1CN(c2c(C#N)c(=O)n(C)c3ccc(C#N)nc23)CCN1C(c1ccc(F)cc1)c1ccncn1` (single isomer, unassigned) [Example 313]: 2.3 µM and 4.8 µM.
The matching figures for `C[C@@H]1CN(c2cc(=O)n(C)c3ccc(C#N)nc23)[C@@H](C)CN1C(c1ccc(F)cc1)c1cccc2ccnn12` (single isomer, unassigned) [Example 694]: 0.84 µM and 0.12 µM.
Take `C[C@@H]1CN(c2cc(=O)n(C)c3ccc(C#N)nc23)[C@@H](C)CN1C(c1ccc(C#N)cc1)c1ccc(F)cn1` (stereo partly drawn) [Example 464, 8-((2S,5R)-4-((4-cyanophenyl)(5-fluoropyridin-2-yl)methyl)-2,5-dimethylpiperazin-1-yl)-5-methyl-6-oxo-5,6-dihydro-1,5-naphthyridine-2-carbonitrile]: the IC50 is 0.28 µM on human DGKα (liposome (LIPGLO) assay) and 1.7 µM at human DGKζ (liposome (LIPGLO) assay).
`Cc1nccc(C(c2ccc(F)cc2)N2CCN(c3c(C#N)c(=O)n(C)c4ccc(C#N)nc34)C[C@H]2C)n1` (stereo partly drawn) [Example 316, 8-((3R)-4-((4-fluorophenyl)(2-methylpyrimidin-4-yl)methyl)-3-methylpiperazin-1-yl)-5-methyl-6-oxo-5,6-dihydro-1,5-naphthyridine-2,7-dicarbonitrile]: the IC50 at human DGKα (liposome (LIPGLO) assay) amounted to 2.4 µM; at human DGKζ (liposome (LIPGLO) assay), 0.93 µM.
Taken in the same sequence, the figures for `C[C@@H]1CN(c2cc(=O)n(C)c3ccc(C#N)nc23)[C@@H](C)CN1C(c1ccc(F)cc1)c1cncc(F)c1` (stereo partly drawn) [Example 400, 8-((2S,5R)-4-((4-fluorophenyl)(5-fluoropyridin-3-yl)methyl)-2,5-dimethylpiperazin-1-yl)-5-methyl-6-oxo-5,6-dihydro-1,5-naphthyridine-2-carbonitrile] were 4.2 µM and 3.2 µM.
Taken in the same sequence, the figures for `C[C@@H]1CN(c2cc(=O)n(C)c3ccc(C#N)nc23)[C@@H](C)CN1C(c1ccc(F)cc1)C1CCOCC1` (single isomer, unassigned) [Example 388] were 8.5 µM and 14 µM.
In the case of `CC(C)Oc1cccc(CN2C[C@H](C)N(c3cc(=O)n(C)c4ccc(C#N)nc34)C[C@H]2C)c1` [Example 594], the IC50 came to 7 µM on human DGKα (liposome (LIPGLO) assay) and 1.4 µM at human DGKζ (liposome (LIPGLO) assay).
The matching figures for `CC[C@@H]1CN(c2cc(=O)n(C)c3ccc(C#N)nc23)[C@@H](C)CN1C(C)c1ccc(F)cc1F` (single isomer, unassigned) [Example 1087]: 0.072 µM and 0.086 µM.
Consider `CC(c1ccc(Cl)cc1)N1CCN(c2c(C#N)c(=O)n(C)c3ccc(C#N)nc23)C[C@H]1C` (single isomer, unassigned) [Example 978], for which the IC50 is 1.3 µM on human DGKα (DGKα liposome (LIPGLO) assay) and 4.9 µM on human DGKζ (DGKζ liposome (LIPGLO) assay).
Taken in the same sequence, the figures for `Cc1ccc(C(c2cccc(F)c2)N2CCN(c3c(C#N)c(=O)n(C)c4ccc(C#N)nc34)C[C@H]2C)nc1` (single isomer, unassigned) [Example 912] were 2.1 µM and 0.58 µM.
Turning to `CCC(c1ccc(OC(F)(F)F)cc1F)N1C[C@H](CC)N(c2cc(=O)n(C)c3ccc(C#N)nc23)C[C@H]1CC` (single isomer, unassigned) [Example 1058], the values for the IC50 on human DGKα (liposome (LIPGLO) assay) and on human DGKζ (liposome (LIPGLO) assay) were 0.75 µM and 0.57 µM, respectively.
The matching figures for `CC(c1cc(OC(F)F)ccc1F)N1C[C@H](C)N(c2cc(=O)n(C)c3ccc(C#N)nc23)C[C@H]1C` (single isomer, unassigned) [Example 1228]: 5.4 µM and 3 µM.
Taken in the same sequence, the figures for `Cc1ccc(C(c2ccc(C)cc2)N2C[C@H](C)N(c3cc(=O)n(C)c4ccc(C#N)nc34)C[C@H]2CO)cc1` [Example 1150, 8-((2S,5S)-4-(di-p-tolylmethyl)-5-(hydroxymethyl)-2-methylpiperazin-1-yl)-5-methyl-6-oxo-5,6-dihydro-1,5-naphthyridine-2-carbonitrile] were 18 µM and 18 µM.
With `C[C@@H]1CN(c2cc(=O)n(C)c3ccc(C#N)nc23)[C@@H](C)CN1CCc1ccccc1` [Example 632], the IC50 on human DGKα (liposome (LIPGLO) assay) worked out at 6.5 µM; on human DGKζ (liposome (LIPGLO) assay), 11 µM.
